Results from patent US10450278B2, “Substituted 2-thioxo-imidazolidin-4-ones and spiro analogues thereof, active anticancer ingredient, pharmaceutical composition, medicinal preparation, method for treating prostate cancer” (R-Pharm Overseas Inc., priority 2014, dated 2019).

Biological target: T1, androgen receptors (Homo sapiens, UniProt P10275, T878A)
T1 sequence (P10275 1-920 T878A): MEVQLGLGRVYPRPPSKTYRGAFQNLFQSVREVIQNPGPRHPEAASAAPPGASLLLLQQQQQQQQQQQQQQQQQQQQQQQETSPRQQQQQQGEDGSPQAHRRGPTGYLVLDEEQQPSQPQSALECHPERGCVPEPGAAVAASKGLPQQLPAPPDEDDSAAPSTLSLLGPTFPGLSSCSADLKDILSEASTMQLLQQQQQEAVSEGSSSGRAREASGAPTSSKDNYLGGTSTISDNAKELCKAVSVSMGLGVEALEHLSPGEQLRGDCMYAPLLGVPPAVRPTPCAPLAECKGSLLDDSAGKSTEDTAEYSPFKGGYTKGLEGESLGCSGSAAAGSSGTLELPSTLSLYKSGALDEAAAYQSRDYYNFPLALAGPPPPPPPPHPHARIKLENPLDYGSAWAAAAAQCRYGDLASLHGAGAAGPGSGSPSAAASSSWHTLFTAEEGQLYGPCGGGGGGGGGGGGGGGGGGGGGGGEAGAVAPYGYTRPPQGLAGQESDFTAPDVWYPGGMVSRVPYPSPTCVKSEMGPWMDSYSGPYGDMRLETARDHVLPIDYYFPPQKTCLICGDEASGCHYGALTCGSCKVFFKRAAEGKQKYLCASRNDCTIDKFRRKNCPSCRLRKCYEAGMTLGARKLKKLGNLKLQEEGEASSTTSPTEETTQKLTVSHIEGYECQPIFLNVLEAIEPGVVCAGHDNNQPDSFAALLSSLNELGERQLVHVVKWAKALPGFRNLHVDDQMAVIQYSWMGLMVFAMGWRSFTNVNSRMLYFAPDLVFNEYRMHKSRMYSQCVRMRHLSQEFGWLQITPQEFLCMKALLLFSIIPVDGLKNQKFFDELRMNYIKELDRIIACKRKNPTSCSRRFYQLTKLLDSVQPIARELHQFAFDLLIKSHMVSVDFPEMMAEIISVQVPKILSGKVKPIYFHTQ
Assay: cell-based
Protocol: Determination of antagonistic activity of the new compounds of general formula 1 and their analogues with respect to androgen receptors. The ability of the new compounds of general formula 1 and their analogues block androgen receptors is determined by their effectiveness ingbirovaniya sitmulirovannoy dihydrotestosterone expression of prostate-specific antigen (PSA) in the human prostate cancerous cells, LNCap, bank obtained from the American Tissue Culture (ATCC, USA). These cells are sensitive to 5-α-dihydrotestosterone (DHT) and produce cancerous marker (PSA) in its presence. […] Before experiments, the cells were washed and suspended in the same medium, where, however, calf serum was replaced with serum-treated to remove traces of charcoal hormones. Cells were dispensed at 100 1 (10 000 cells) in cell 96 lunochnoyh dies and left for 4 days in an incubator at […] (100% humidity) in an atmosphere of 95% air/5% CO2. […] Cells were allowed to stand for further 5 days under the same incubation conditions. Then nadkletochnoy environmental samples were taken for analysis on the content of the PSA. The analysis was performed according to the protocol recommended by the kit manufacturer to determine the PSA (Alpha Diagnostic International, USA). After wetting holes on the bottom affixed containing antibodies against PSA, they added 25 ul of samples and then 100 µL of antibodies as anti-PSA, which konyugtrovana horseradish peroxidase. After a 30 minute incubation at room temperature, the wells were removed, the wells were washed several times and poured into the wells, 100 ul of a chromogenic peroxidase substrate. Plates were incubated for 15 minutes at room temperature, the wells were added 50 mcl of stop solution and the intensity of color which developed was measured by absorbance at 450 nm. The intensity of the absorption is proportional to the concentration of PSA in the sample. […] 1.

| SMILES | IC50 | Ki |
| --- | --- | --- |
| CNC(=O)c1ccc(N2C(=S)N(c3ccc(C#N)c(C(F)(F)F)c3)C(=O)[C@@]2(C)COC)cc1F [II] | 145 nM | 34.9 nM |
| CNC(=O)c1ccc(N2C(=S)N(c3ccc(C#N)c(C(F)(F)F)c3)C(=O)[C@]23CCOC3)cc1F [IV] | 83.5 nM | 20.1 nM |
